Reference: the NIST ThermoML archive (doi:10.1021/acs.jced.8b00554)

Test: xn = mol fraction of the nth substance listed
Conditions: Liquid, Vibrating tube method

CCCCCCCCC [nonane] + CCCO
Conditions | mass density [kg/m3]
343.15 K, 16020 kPa, x2 = 0.2315 | 697.06
343.15 K, 16020 kPa, x2 = 0.3229 | 700.38
343.15 K, 16020 kPa, x2 = 0.4272 | 705.54
343.15 K, 17000 kPa, x2 = 0.1231 | 694.17
343.15 K, 17000 kPa, x2 = 0.3229 | 701.35
343.15 K, 17000 kPa, x2 = 0.4272 | 706.5
343.15 K, 17010 kPa, x2 = 0.7021 | 728.12
343.15 K, 17020 kPa, x2 = 0.2315 | 698.04
343.15 K, 17020 kPa, x2 = 0.8941 | 753.71
343.15 K, 18010 kPa, x2 = 0.1231 | 695.1
343.15 K, 18010 kPa, x2 = 0.2315 | 698.96
343.15 K, 18010 kPa, x2 = 0.7021 | 729.04
343.15 K, 18020 kPa, x2 = 0.3229 | 702.27
343.15 K, 18020 kPa, x2 = 0.4272 | 707.45
343.15 K, 18020 kPa, x2 = 0.8941 | 754.62
343.15 K, 19000 kPa, x2 = 0.2315 | 699.84
343.15 K, 19000 kPa, x2 = 0.3229 | 703.2
343.15 K, 19000 kPa, x2 = 0.7021 | 729.96
343.15 K, 19000 kPa, x2 = 0.8941 | 755.52
343.15 K, 19010 kPa, x2 = 0.1231 | 695.98
343.15 K, 19010 kPa, x2 = 0.4272 | 708.36
343.15 K, 20000 kPa, x2 = 0.4272 | 709.29
343.15 K, 20010 kPa, x2 = 0.1231 | 696.86
343.15 K, 20010 kPa, x2 = 0.2315 | 700.72
343.15 K, 20010 kPa, x2 = 0.3229 | 704.07
343.15 K, 20010 kPa, x2 = 0.7021 | 730.88
343.15 K, 20020 kPa, x2 = 0.8941 | 756.41
353.15 K, 100 kPa, x2 = 0.1231 | 666.99
353.15 K, 100 kPa, x2 = 0.2315 | 669.25
353.15 K, 100 kPa, x2 = 0.3229 | 671.68
353.15 K, 100 kPa, x2 = 0.4272 | 676.17
353.15 K, 100 kPa, x2 = 0.7021 | 697.1
353.15 K, 100 kPa, x2 = 0.8941 | 723.67
353.15 K, 1000 kPa, x2 = 0.3229 | 672.91
353.15 K, 1000 kPa, x2 = 0.4272 | 677.15
353.15 K, 1000 kPa, x2 = 0.7021 | 697.4
353.15 K, 1010 kPa, x2 = 0.1231 | 667.83
353.15 K, 1010 kPa, x2 = 0.2315 | 670.69
353.15 K, 1010 kPa, x2 = 0.8941 | 724.26
353.15 K, 2000 kPa, x2 = 0.1231 | 668.99
353.15 K, 2000 kPa, x2 = 0.2315 | 671.87
353.15 K, 2010 kPa, x2 = 0.4272 | 678.31
353.15 K, 2010 kPa, x2 = 0.7021 | 698.58
353.15 K, 2020 kPa, x2 = 0.3229 | 674.1
353.15 K, 2020 kPa, x2 = 0.8941 | 725.38
353.15 K, 3010 kPa, x2 = 0.2315 | 673.01
353.15 K, 3010 kPa, x2 = 0.3229 | 675.25
353.15 K, 3010 kPa, x2 = 0.4272 | 679.49
353.15 K, 3010 kPa, x2 = 0.7021 | 699.75
353.15 K, 3010 kPa, x2 = 0.8941 | 726.49
353.15 K, 3020 kPa, x2 = 0.1231 | 670.15
353.15 K, 4000 kPa, x2 = 0.4272 | 680.67
353.15 K, 4010 kPa, x2 = 0.1231 | 671.29
353.15 K, 4010 kPa, x2 = 0.3229 | 676.42
353.15 K, 4010 kPa, x2 = 0.7021 | 700.94
353.15 K, 4010 kPa, x2 = 0.8941 | 727.63
353.15 K, 4020 kPa, x2 = 0.2315 | 674.2
353.15 K, 5000 kPa, x2 = 0.4272 | 681.83
353.15 K, 5010 kPa, x2 = 0.1231 | 672.43
353.15 K, 5010 kPa, x2 = 0.2315 | 675.32
353.15 K, 5010 kPa, x2 = 0.7021 | 702.12
353.15 K, 5010 kPa, x2 = 0.8941 | 728.78
353.15 K, 5020 kPa, x2 = 0.3229 | 677.57
353.15 K, 6000 kPa, x2 = 0.1231 | 673.56
353.15 K, 6000 kPa, x2 = 0.4272 | 683.02
353.15 K, 6010 kPa, x2 = 0.2315 | 676.43
353.15 K, 6010 kPa, x2 = 0.3229 | 678.73
353.15 K, 6010 kPa, x2 = 0.7021 | 703.28
353.15 K, 6010 kPa, x2 = 0.8941 | 729.91
353.15 K, 7000 kPa, x2 = 0.2315 | 677.57
353.15 K, 7010 kPa, x2 = 0.3229 | 679.88
353.15 K, 7010 kPa, x2 = 0.8941 | 731.05
353.15 K, 7020 kPa, x2 = 0.1231 | 674.7
353.15 K, 7020 kPa, x2 = 0.4272 | 684.19
353.15 K, 7020 kPa, x2 = 0.7021 | 704.46
353.15 K, 8000 kPa, x2 = 0.3229 | 681.03
353.15 K, 8000 kPa, x2 = 0.7021 | 705.61
353.15 K, 8010 kPa, x2 = 0.1231 | 675.84
353.15 K, 8010 kPa, x2 = 0.4272 | 685.36
353.15 K, 8010 kPa, x2 = 0.8941 | 732.17
353.15 K, 8020 kPa, x2 = 0.2315 | 678.73
353.15 K, 9000 kPa, x2 = 0.1231 | 676.94
353.15 K, 9000 kPa, x2 = 0.2315 | 679.85
353.15 K, 9010 kPa, x2 = 0.3229 | 682.18
353.15 K, 9010 kPa, x2 = 0.4272 | 686.5
353.15 K, 9010 kPa, x2 = 0.7021 | 706.79
353.15 K, 9010 kPa, x2 = 0.8941 | 733.3
353.15 K, 10000 kPa, x2 = 0.2315 | 680.95
353.15 K, 10000 kPa, x2 = 0.4272 | 687.67
353.15 K, 10010 kPa, x2 = 0.1231 | 678.03
353.15 K, 10010 kPa, x2 = 0.3229 | 683.34
353.15 K, 10010 kPa, x2 = 0.7021 | 707.93
353.15 K, 10010 kPa, x2 = 0.8941 | 734.42
